Source: patent US7307102B2, “Method of preventing or treating estrogen-dependent diseases and disorders” (Duke University, priority 1997, dated 2007)
Each block holds one compound with its values, some of them ahead of it.

Key:
[1] = molecular target: T1, human ER (Homo sapiens, UniProt P03372); assay type: cell-based; conditions: MCF-7 cells, in the presence of 17-β-estradiol, 48 h, FIG. 12
T1 construct: expressed in transfected cells; host or cells: MCF-7

[2] = molecular target: ERβ (Homo sapiens, UniProt Q92731); conditions: HeLa cells, estradiol (10^−9), FIG. 14B
Source text: (§1) HeLa cells were transfected with either an ERα expression vector (see FIG. 14A) or an ERβ expression vector (see FIG. 14B) together with an estrogen responsive ERE-TK-luceriferase reporter construct.

[3] = molecular target: T2, ERα (Homo sapiens, UniProt P03372); assay type: cell-based; conditions: HeLa cells, estradiol (10^−9), FIG. 14A
T2 construct: expressed in transfected cells; host or cells: HeLa
Source text: as §1

[4] = test system: ER-TAF1; experiment: C3 promoter-luciferase cotransfection assay in HepG2 cells, ER-TAF1 (AF-2 disrupted); assay type: cell-based, human; conditions: for agonist activity on ER-TAF1: ER-TAF1, compound alone, FIG. 1B
Source text: (§2) FIGS. 1A and 1B. […] The human C3 promoter (−1807 to +58) fused to the firefly luciferase reporter gene was transfected along with an expression plasmid containing (FIG. 1A) the wild-type human estrogen receptor (ERwt), or (FIG. 1B) a mutated ER in which the AF-2 function had been disrupted (ER-TAFl) into HepG2 cells and tested for transcriptional activation in the presence of increasing concentrations of ER-modulator as indicated. Transfections were normalized for efficiency and cell number by cotransfecting an expression plasmid containing β-galactosidase. The normalized response was obtained by dividing light units by the activity of β-galactosidase as measured in an enzymatic assay. Triplicate transfections were performed. The data shown are representative of multiple experiments performed under similar conditions.
(§3) FIGS. 2A-2C. […] FIG. 2A. […] FIG. 2B. […] FIG. 2C. […] Transfections were normalized for efficiency and cell number by cotransfecting an expression plasmid containing β-galactosidase. The normalized response was obtained by dividing light units by the activity of β-galactosidase as measured in an enzymatic assay. Representative assays are shown in which triplicate transfections were performed. Error bars represent the standard error of the mean (SEM).
(§4) HepG2 cells were maintained in Modified Eagles Medium (MEM) (Life Technologies, Grand Island, N.Y.) plus 10% Fetal Calf Serum (FCS) (Life Technologies). Cells were plated in 24 well plates (coated with gelatin) 24 hours prior to transfection. DNA was introduced into the cells using Lipofectin (Life Technologies). Briefly, triplicate transfections were performed using 3 μg of total DNA. For standard transfections, 500 ng of pCMV-β-Gal (normalization vector), 1500 ng reporter (variable) and 1000 ng receptor (pRST7-hER (Dana et al, Mol. Endocrinol. 8:1193-1207 (1994)) were used for each triplicate. Incubation of the cells with Lipofectin proceeded for 3 hrs, at which time media was removed, cells were washed with PBS and then induced with the appropriate hormone diluted in phenol red-free media containing 10% charcoal stripped CS (Cyclone Inc.). Incubation with hormone continued for 48 hrs, after which cells were lysed and assayed for luciferase and β-galactosidase activity as previously described (Norris et al, JBC 270:22777-22782 (1995)).
(§5) A series of in vitro screens have been developed that permit the classification of ER-modulators into four mechanistically distinct groups (Tzukerman et al, Mol. Endocrinol. 8:21-30 (1994)). […] Using these assays, it has been possible to derive “fingerprints” of known ER-modulators (McDonnell et al, Mol. Endocrinol. 9:659-669 (1995)).
(§6) Subsequently, the transfected cells were assayed for luceriferase and β-galactosidase activity. Each data point in this experiment represents the average of triplicate determinations of the transcriptional activity under given experimental conditions.

[5] = test system: ER-VP16; experiment: ER-VP16 reporter of nuclear localization and DNA binding status of ER; assay type: cell-based
Source text: This was addressed using a modified ER (ER-VP16) to report on the nuclear localization and the DNA binding status of ER within a cell following ligand binding. This modified protein behaves exactly like ER in all respects except it activates transcription upon interaction with an estrogen response element (ERE) independent of the nature of the bound ligand (McDonnell et al, Mol. Endocrinol. 9:659-669 (1995)).

[6] = test system: MCF-7 cells; experiment: [3H]-thymidine incorporation, E2 stimulated MCF-7 cell proliferation; assay type: cell-based, human; conditions: FIG. 19
Protocol: Experimental Design: Plate between 25,000 and 50,000 cells per well onto 24-well plates. Cells are plated in phenol red-free media. After attachment, cells are stimulated with either antiestrogen alone or estrogen and antiestrogen. Induction time ranges from 12-48 hours, depending on experiment.
Add 4λ (4 μCi) thymidine, [methyl-^3H]-to each well.
Incubate at 37° C. for 2-4 hours.
Aspirate media and wash twice with ice cold PBS.
Wash once with ice cold 10% TCA (trichloroacetic acid).
Add 2 mL 10% TCA to each well.
Incubate at 4° C. for 1-2 hours.
Transfer each well to scintillation vial containing 2 mL scintillation fluid.

[7] = molecular target: T3, wild-type human estrogen receptor (ERwt) (Homo sapiens, UniProt P03372); experiment: C3 promoter-luciferase cotransfection assay in HepG2 cells, ERwt; assay type: cell-based
T3 construct: expressed in transfected cells; host or cells: HepG2
T3 sequence (P03372 1-595): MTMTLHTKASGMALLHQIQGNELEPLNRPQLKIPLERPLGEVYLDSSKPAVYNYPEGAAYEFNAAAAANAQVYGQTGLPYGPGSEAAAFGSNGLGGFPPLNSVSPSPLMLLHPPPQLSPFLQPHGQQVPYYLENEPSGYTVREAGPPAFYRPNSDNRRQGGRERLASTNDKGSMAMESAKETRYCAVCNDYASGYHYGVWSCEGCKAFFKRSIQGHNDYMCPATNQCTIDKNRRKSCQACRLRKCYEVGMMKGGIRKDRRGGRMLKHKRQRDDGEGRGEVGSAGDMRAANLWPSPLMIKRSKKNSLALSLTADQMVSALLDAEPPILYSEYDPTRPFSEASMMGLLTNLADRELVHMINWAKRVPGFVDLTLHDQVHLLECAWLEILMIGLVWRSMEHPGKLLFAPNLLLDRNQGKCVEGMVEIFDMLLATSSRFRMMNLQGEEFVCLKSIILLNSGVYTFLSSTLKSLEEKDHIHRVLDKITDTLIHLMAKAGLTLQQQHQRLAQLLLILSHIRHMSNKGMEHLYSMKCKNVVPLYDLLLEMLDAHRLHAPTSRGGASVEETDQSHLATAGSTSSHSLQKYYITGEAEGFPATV
Source text: as §2, §3, §4, §5, §6

[8] = Bone mineral density in ovariectomized rats (DEXA, pQCT); assay type: in vivo, rat; conditions: 90-day old OVX rats, oral, 28 days, FIG. 3A
Protocol: FIGS. 3A and 3B. […] FIG. 3A. […] FIG. 3B.
Animal preparation. […] At sacrifice, animals were euthanized with C02, body weights were recorded and the uteri were removed and weighed. Uterus, vagina and mammary tissue were fixed in 10% neutral buffered formalin. Samples for histologic processing were taken from the mid-point of each uterine horn. Tissue samples were embedded in paraffin, stained with haematoxylin and eosin and evaluated microscopically. Lumbar vertebrae and both left and right tibiae were excised. Total blood cholesterol was measured (Roche Biomedical Laboratories).

[9] = Uterotrophic assay in immature rats; conditions: 21 day old immature rats, oral
Protocol: FIG. 5. […] The data shown represent the mean value (±SEM).
Twenty-one day old female Sprague-Dawley rats (30-35 gms) were obtained from Harlan or Taconic Laboratories. Animals were sorted randomly into treatment groups of five, and average weights were recorded for each treatment group. Weights were recorded on each treatment day. […] On day of dosing, drug was diluted in 0.5% methyl cellulose, viscosity of 2% at 25° C.:400 centipoises (Sigma, St. Louis, Mo.)). Oral dosing by gavage was based on a total volume of 10 ml/kg body weight. […] Subcutaneous dosing was based on a total of 2 ml/kg body weight. […] On day 4, animals were sacrificed by C02 asphyxiation, body weights were obtained and uteri were removed, blotted and weighed. Data were expressed as uterine weight/body weight.
In this assay, uterine wet weight was used as a measure of ER-agonist activity in this tissue (FIG. 5).

[10] = test system: MCF-7/LCC2; experiment: LCC2 study, MCF-7/LCC2 tumors in nude mice; assay type: in vivo, mouse; conditions: after 8 weeks, 1.0 mg every three days, FIG. 11
Protocol: This experiment was conducted to determine the ability of GW5638 to retard the growth of this cell line in nude mice relative to control or tamoxifen treated tumors.
40 OVX mice were prepared to accept cells and grouped as follows:
Control animals received nothing and groups 3 and 4 received 0.1 ml injections in corn oil every three days. Tumors were measured Q3 days with calipers, and the area calculated as follows: Area=½×w/2×π.

Chain of ERβ (Q92731 whole entry): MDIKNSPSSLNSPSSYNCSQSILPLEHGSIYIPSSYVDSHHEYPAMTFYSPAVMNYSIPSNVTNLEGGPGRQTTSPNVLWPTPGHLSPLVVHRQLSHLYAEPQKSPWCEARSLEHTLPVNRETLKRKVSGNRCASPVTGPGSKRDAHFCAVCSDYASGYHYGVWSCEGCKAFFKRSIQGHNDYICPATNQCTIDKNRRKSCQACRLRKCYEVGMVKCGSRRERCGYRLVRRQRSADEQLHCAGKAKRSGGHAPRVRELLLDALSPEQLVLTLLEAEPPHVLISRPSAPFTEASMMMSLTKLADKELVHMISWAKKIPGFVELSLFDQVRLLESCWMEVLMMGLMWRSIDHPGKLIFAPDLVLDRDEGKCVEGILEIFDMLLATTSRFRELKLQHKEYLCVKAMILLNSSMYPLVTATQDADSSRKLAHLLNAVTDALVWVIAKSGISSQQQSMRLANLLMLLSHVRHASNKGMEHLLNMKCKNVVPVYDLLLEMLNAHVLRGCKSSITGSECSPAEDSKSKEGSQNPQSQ

SMILES: CC/C(=C(\c1ccc(O)cc1)c1ccc(/C=C/C(=O)O)cc1)c1ccccc1 [GW7604]
antiestrogen activity on C3-Luc transcription [1]: Functions as an Antiestrogen | inhibition of estradiol activated transcription, ERβ [2]: potent pan-antagonist of both forms of the human estrogen receptor | inhibition of estradiol activated transcription, ERα [3]: potent pan-antagonist of both forms of the human estrogen receptor | inhibition of the partial agonist activity of raloxifene on ER-TAF1 ([4]; ER-TAF1): inhibited | inhibition of estradiol- and tamoxifen-induced ER-TAF1 transcriptional activity ([4]; ER-TAF1, FIG. 2B): capable of inhibiting | agonist activity on ER-TAF1 [4]: functionally inactive | agonist activity on ER mutants ([4]; any ER-mutant examined, FIG. 13): does not exhibit agonist activity | interaction of ER with target DNA [5]: facilitate efficient interactions of ER with target DNA | E2 stimulated MCF-7 cell proliferation [6]: Inhibits E2 Stimulated MCF-7 Cell Proliferation | reversal of the inverse agonist activity of ICI182,780 ([7]; C3 promoter, co-addition with ICI182,780, FIG. 2C): completely reversed | inhibition of the agonist activity manifested by tamoxifen or estradiol ([7]; ERwt, 10^−8M 17-β-estradiol or tamoxifen, FIG. 2A): inhibited | agonist / inverse agonist activity on the C3 promoter ([7]; ERwt, compound alone, FIG. 1A/2A): do not demonstrate any agonist or antagonist activity

SMILES: C[C@]12CC[C@@H]3c4ccc(O)cc4C[C@@H](CCCCCCCCC[S+]([O-])CCCC(F)(F)C(F)(F)F)[C@H]3[C@@H]1CC[C@@H]2O (stereo partly drawn) [ICI182,780, reference compound]
agonist activity on ER-TAF1 [4]: functionally inactive | interaction of ER with target DNA [5]: facilitate efficient interactions of ER with target DNA

SMILES: C[C@]12CC[C@@H]3c4ccc(O)cc4CC[C@H]3[C@@H]1CC[C@@H]2O [estradiol, 17β-estradiol, reference compound]
bone mineral density, lumbar spine [8]: BMD was maintained

SMILES: O=C(c1ccc(OCCN2CCCCC2)cc1)c1c(-c2ccc(O)cc2)sc2cc(O)ccc12 [raloxifene, reference compound]
inhibition of estradiol activated transcription, ERβ [2]: neither raloxifene nor idoxifene manifest potent antagonist activity

lowest dose with uterotrophic activity [9]: 0.1 µmol/kg/day
SMILES: CC/C(=C(\c1ccccc1)c1ccc(OCCN(C)C)cc1)c1ccccc1 [tamoxifen, reference compound]
tumor growth [10]: equally inhibit growth of this tumor
